Assay results as given in US6500853B1, “Inhibitors of phospholipase enzymes” (Genetics Institute, LLC, priority 1998, dated 2002).
Several values for one entry are separate records, joined by “and”; a condition that tells them apart may be missing. Equal values may be shown once. Read-outs that look alike come from different tables or passages of the source. One block for each compound: values may come before it.

What was measured:
[1] = target: T1, cPLA2 (Homo sapiens, UniProt P47712); experiment: Coumarin Assay (cPLA2 inhibition); type: biochemical; details: for inhibition at 19 µM: CONCENTRATION 19 micromolar; for inhibition at 100 µM: CONCENTRATION 100 micromolar
T1 sequence (P47712 1-749): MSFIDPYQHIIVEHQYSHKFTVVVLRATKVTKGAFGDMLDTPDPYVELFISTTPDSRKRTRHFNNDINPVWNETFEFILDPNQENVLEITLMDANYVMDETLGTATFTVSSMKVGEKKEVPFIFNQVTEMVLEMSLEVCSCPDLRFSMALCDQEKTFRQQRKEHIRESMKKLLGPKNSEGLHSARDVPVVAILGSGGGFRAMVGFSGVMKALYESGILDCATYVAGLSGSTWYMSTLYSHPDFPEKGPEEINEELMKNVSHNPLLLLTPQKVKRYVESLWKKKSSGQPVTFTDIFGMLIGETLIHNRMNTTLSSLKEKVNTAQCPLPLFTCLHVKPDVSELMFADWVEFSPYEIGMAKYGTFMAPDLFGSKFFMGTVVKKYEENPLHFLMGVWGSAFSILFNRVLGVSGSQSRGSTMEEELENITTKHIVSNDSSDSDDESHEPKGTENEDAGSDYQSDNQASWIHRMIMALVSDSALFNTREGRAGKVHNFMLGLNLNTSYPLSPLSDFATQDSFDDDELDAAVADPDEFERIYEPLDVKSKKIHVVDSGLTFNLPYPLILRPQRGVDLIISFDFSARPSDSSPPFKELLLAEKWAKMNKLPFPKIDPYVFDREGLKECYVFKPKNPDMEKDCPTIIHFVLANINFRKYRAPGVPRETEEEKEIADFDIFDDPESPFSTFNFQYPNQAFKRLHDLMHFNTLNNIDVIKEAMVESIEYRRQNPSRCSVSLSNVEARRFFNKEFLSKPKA
Method in brief: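 Percent inhibition at the stated concentration, from the rate of 460 nm emission rise (360 nm excitation) per minute. Reaction started by adding 4 μg enzyme to compound and 60 μM 7-hydroxycoumarinyl 6-heptenoate in Hepes buffer pH 7.5 with 1 mM EDTA.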

[2] = system: Rat Carrageenan-Induced Footpad Edema; experiment: Rat Carrageenan-Induced Footpad Edema Test; type: in vivo, male Sprague Dawley rats; details: footpad volume 3 hours after carrageenan
[3] = Rattus norvegicus, iv, 3 h, IV, 5 mg/Kg, read-out: PERCENT INHIBITION

Compound: 4-({5-[(cyclopentylcarbonyl)amino]-1-[phenyl(2-pyridinyl)methyl]-1H-indol-3-yl}methyl)-3-methoxybenzoic acid [Example 44]
PERCENT INHIBITION @ ([1]; CONCENTRATION 1.65 micromolar): 50% | PERCENT INHIBITION @ ([1]; CONCENTRATION 1.7 micromolar): 50% | PERCENT INHIBITION @ ([1]; CONCENTRATION 1.75 micromolar): 50% | PERCENT INHIBITION @ ([1]; CONCENTRATION 1.9 micromolar): 50% | PERCENT INHIBITION @ ([1]; CONCENTRATION 2.1 micromolar): 50% | PERCENT INHIBITION @ ([1]; CONCENTRATION 2.5 micromolar): 71% | PERCENT INHIBITION @ ([1]; CONCENTRATION 6.25 micromolar): 97% | PERCENT INHIBITION ([2]; IV, 5 mg/Kg): 11.9%

Compound: 4-[(1-benzhydryl-5-nitro-1H-indol-3-yl)methyl]3-methoxybenzoic acid [Example 12]
PERCENT INHIBITION @ ([1]; CONCENTRATION 0.35 micromolar): 50% | PERCENT INHIBITION @ ([1]; CONCENTRATION 0.38 micromolar): 50% | PERCENT INHIBITION @ ([1]; CONCENTRATION 0.39 micromolar): 50% | PERCENT INHIBITION @ ([1]; CONCENTRATION 0.4 micromolar): 50% | PERCENT INHIBITION @ ([1]; CONCENTRATION 0.44 micromolar): 50% | PERCENT INHIBITION @ ([1]; CONCENTRATION 0.45 micromolar): 50% | PERCENT INHIBITION @ ([1]; CONCENTRATION 0.5 micromolar): 64% | PERCENT INHIBITION @ ([1]; CONCENTRATION 1.25 micromolar): 86% | PERCENT INHIBITION ([2]; PO, 2 mg/Kg): 0.19% | PERCENT INHIBITION ([2]; PO, 10 mg/Kg): −0.38%

Compound: 4-[(1-benzhydryl-5-{[(dimethylamino)sulfonyl]amino}-1H-indol-3-yl)methyl]-3- [Example 92]
PERCENT INHIBITION @ ([1]; CONCENTRATION 11 micromolar): 50% | PERCENT INHIBITION @ ([1]; CONCENTRATION 12.5 micromolar): 50% | PERCENT INHIBITION @ ([1]; CONCENTRATION 14.2 micromolar): 50% | PERCENT INHIBITION ([2]; PO, 2 mg/Kg): 27.36% | PERCENT INHIBITION ([2]; PO, 10 mg/Kg): 21.34%

Compound: CCCn1cc(Cc2ccc(C(=O)NS(=O)(=O)c3ccccc3C)cc2OC)c2cc(NC(=O)OC3CCCC3)ccc21 [Example 2, Cyclopentyl N-{3-[2-methoxy-4-({[(2-methylphenyl)sulfonyl]amino}carbonyl)benzyl]-1-propyl-1H-indol-5-yl}carbamate]
inhibition in vivo at 5 mg/kg [2, 3]: 15.9%

Compound: COc1cc(C(=O)O)ccc1Cc1cn(C(c2ccccc2)c2ccccc2)c2ccc(NC(=O)OC3CCCC3)cc12 [Example 3, 4-[(1-benzhydryl-5-{[(cyclopentyloxy)carbonyl]amino}1H-indol-3-yl)methyl]-3-methoxybenzoic acid]
inhibition at 5 µM ([1]; CONCENTRATION 5 micromolar, read-out: PERCENT INHIBITION @): 50% | inhibition at 6.25 µM ([1]; CONCENTRATION 6.25 micromolar, read-out: PERCENT INHIBITION @): 51% | inhibition at 6.4 µM ([1]; CONCENTRATION 6.4 micromolar, read-out: PERCENT INHIBITION @): 50% | inhibition at 10 µM ([1]; CONCENTRATION 10 micromolar, read-out: PERCENT INHIBITION @): 41% | inhibition at 17.5 µM ([1]; CONCENTRATION 17.5 micromolar, read-out: PERCENT INHIBITION @): 50% | inhibition at 19 µM ([1]; read-out: PERCENT INHIBITION @): 50% | PERCENT INHIBITION @ ([1]; CONCENTRATION 20 micromolar): 38% and 43% and 44% | inhibition at 20 µM ([1]; CONCENTRATION 20 micromolar, read-out: PERCENT INHIBITION @): 37% | inhibition at 22 µM ([1]; CONCENTRATION 22 micromolar, read-out: PERCENT INHIBITION @): 50% | inhibition at 23 µM ([1]; CONCENTRATION 23 micromolar, read-out: PERCENT INHIBITION @): 50% | inhibition at 23.5 µM ([1]; CONCENTRATION 23.5 micromolar, read-out: PERCENT INHIBITION @): 50% | inhibition at 24 µM ([1]; CONCENTRATION 24 micromolar, read-out: PERCENT INHIBITION @): 50% | inhibition at 100 µM ([1]; read-out: PERCENT INHIBITION @): 39% | inhibition in vivo at 5 mg/kg ([2]; Rattus norvegicus, po, 3 h, PO, 5 mg/Kg, read-out: PERCENT INHIBITION): 21.5% | inhibition in vivo at 20 mg/kg ([2]; Rattus norvegicus, po, 3 h, PO-, 20 mg/Kg, read-out: PERCENT INHIBITION): 19.6%

Compound: COc1cc(C(=O)O)ccc1Cc1cn(C(C)C)c2ccc(NC(=O)OC3CCCC3)cc12 [Example 7, 4-[(5-{[(cylopentyloxy)carbonyl]amino}-1-isopropyl-1H-indol-3yl)methyl]-3-methoxybenzoic acid]
PERCENT INHIBITION @ ([1]; CONCENTRATION 50 micromolar): 11% | PERCENT INHIBITION @ ([1]; CONCENTRATION 235 micromolar): 50% | PERCENT INHIBITION ([2]; IV, 5 mg/Kg): −0.65%

Compound: COc1cc(C(=O)O)ccc1Cc1cn(C2CCCC2)c2ccc(NC(=O)OC3CCCC3)cc12 [Example 8, 4-[(1-cyclopentyl-5-{[(cyclopentyloxy)carbonyl]amino}-1H-indol-3-yl)methyl]-3-methoxybenzoicacid]
inhibition at 65 µM ([1]; CONCENTRATION 65 micromolar, read-out: PERCENT INHIBITION @): 50% | inhibition at 100 µM ([1]; read-out: PERCENT INHIBITION @): 44% | inhibition in vivo at 5 mg/kg [2, 3]: -5.7%

Compound: CCCCNC(=O)Nc1ccc2c(c1)c(Cc1ccc(C(=O)O)cc1OC)cn2C(c1ccccc1)c1ccccc1 [Example 9, 4[(1-benzhydryl-5-{[(butylamino)carbonyl]amino}-1H-indol-3-yl)methyl]3-methoxybenzoic acid]
inhibition at 13 µM ([1]; CONCENTRATION 13 micromolar, read-out: PERCENT INHIBITION @): 50% | inhibition at 19 µM ([1]; read-out: PERCENT INHIBITION @): 50% | inhibition in vivo at 5 mg/kg [2, 3]: 4.46%

Compound: O=C(O)c1ccc(OCCc2c(COCc3ccc(F)cc3F)n(C(c3ccccc3)c3ccccc3)c3ccc(Cl)cc23)cc1 [Example 162, 4-[2-(1-benzhydryl-5-chloro-2{[(2,4-difluorobenzyl)oxy]methyl}-1H-indol-3-yl)ethoxy]benzoic acid]
inhibition at 1.5 µM ([1]; Conc 1.5 uM, read-out: % Inhibition): 50%

Compound: N#Cc1ccc(COCc2c(CCOc3ccc(C(=O)O)cc3)c3cc(Cl)ccc3n2C(c2ccccc2)c2ccccc2)cc1 [Example 163, 4-[2-(1-benzhydryl-5-chloro-2{[(4-cynobenzyl)oxy]methyl}-1H-indol-3-yl)ethoxy]benzoic acid]
% Inhibition ([1]; Conc 1.25 uM): 50%

The remaining lines, values ahead:

inhibition at 3.5 µM ([1]; Conc 3.5 uM, read-out: % Inhibition): 50%
Compound: O=C(O)c1ccc(OCCc2c(COC/C=C/c3ccccc3)n(C(c3ccccc3)c3ccccc3)c3ccc(Cl)cc23)cc1 [Example 164, 4-{2-[1-benzhydryl-5-chloro-2-({[(E)-3-phenyl-2-propenyl]oxy}methyl)-1H -indol-3-yl)ethoxy]benzoic acid]

inhibition at 0.8 µM ([1]; Conc 0.8 uM, read-out: % Inhibition): 50%
Compound: O=C(O)CCc1ccc(OCCc2c(COCc3ccc(F)cc3)n(C(c3ccccc3)c3ccccc3)c3ccc(Cl)cc23)cc1 [Example 165, 3-{4-[2-(1-benzhydryl-5-chloro-2-{[(4-fluorobenzyl)oxy]methyl}-1H-indol-3-yl)ethoxy]phenyl}propanoic acid]

inhibition at 1.3 µM ([1]; Conc 1.3 uM, read-out: % Inhibition): 50%
Compound: O=C(O)CCc1ccc(OCCc2c(CO)n(C(c3ccccc3)c3ccccc3)c3ccc(Cl)cc23)cc1 [Example 167, 3-(4-{2-[1-benzhydryl-5-chloro-2-(hydroxymethyl)-1H-indol-3-yl]ethoxy}phenyl)propanoic acid]

inhibition at 2.4 µM ([1]; Conc 2.4 uM, read-out: % Inhibition): 50%
Compound: O=C(O)CCc1ccc(S(=O)(=O)CCc2c(CO)n(C(c3ccccc3)c3ccccc3)c3ccc(Cl)cc23)cc1 [Example 168, 3-[4-({2-[1-benzhydryl-5-chloro-2-(hydroxymethyl)-1H-indol-3-yl]ethyl}sulfonyl)phenyl]propanoic acid]

inhibition at 0.45 µM ([1]; Conc 0.45 uM, read-out: % Inhibition): 50%
Compound: Cc1c(CCS(=O)(=O)c2ccc(CCC(=O)O)cc2)c2cc(Cl)ccc2n1C(c1ccccc1)c1ccccc1 [Example 169, 3-(4-{[2-(1-Benzhydryl-5-chloro-2-methyl-1H-indol-3-yl)ethyl]sulfonyl}phenyl)propanoic acid]

inhibition at 0.5 µM ([1]; Conc 0.5 uM, read-out: % Inhibition): 50%
Compound: Cc1c(CCSc2ccc(CCC(=O)O)cc2)c2cc(Cl)ccc2n1C(c1ccccc1)c1ccccc1 [Example 170, 3-(4 {[2-(1-benzhydryl-5-chloro-2-methyl-1H-indol-3-yl)ethyl]sulfanyl}phenyl)propanoic acid]

% Inhibition ([1]; Conc 0.4 uM): 50%
Compound: Cc1c(CCOc2ccc(CCC(=O)O)cc2)c2cc(Cl)ccc2n1C(c1ccccc1)c1ccccc1 [Example 171, 3-{4-[2-(1-Benzhydryl-5-chloro-2-methyl-1H-indol-3-yl)ethoxy]phenyl}propanoic acid (10)]
